Experimental data taken from US20250360145A1, “CSF-1R INHIBITORS AND USES THEREOF” (Myrobalan Therapeutics, Inc., priority 2022, published 2025).
Like-named read-outs stand apart in the source and are kept apart here.

How the values were obtained:
[1] = In vivo PK study (plasma and brain exposure); set-up: species or system CD1 mouse; conditions: for Kp uu / half-life / AUC(0-t) / AUC(0-inf) / clearance / Vd / bioavailability / Cmax / Tmax: male; for Kp uu: CD1, brain, BBB penetration; for half-life: CD1, mouse; for clearance: read-out: IV-2mpk CL (converted); for Vd: read-out: IV-2mpk VSS; for bioavailability: p.o. 45 mg/kg vs i.v. 2 mg/kg; for Cmax: read-out: PO-45mpk Cmax; for Tmax: read-out: PO-45mpk Tmax
Description: The PK profiles were determined in CD1 mouse, and all the procedures and protocols were in accordance with the National Institutes of Health Guide for the Care and Use of Laboratory Animals. The CD1 mouse were purchased from JH Laboratory Animal Co. LTD. The CD1 mouse (23-30 g, 6-8 weeks, male) were randomized and divided into five groups consisting of 21 mouse per group. The test compounds that have been formulated were subjected to PK studies. The test compounds were administrated via p.o. at 45 mg/kg and i.v. at 2 mg/kg. […] The blood samples were placed on wet ice, and serum was collected after centrifugation. Serum samples were frozen and stored at −70° C. The brain samples were dried on filtrate paper, and snap frozen on dry ice and further stored at −70° C. Then, the blood samples and brain samples were further analyzed by LC-MS/MS (Triple Quad 6500+).

[2] = Brain protein binding study; type: in vitro ADME; conditions: mouse brain homogenate, equilibrium dialysis 4 hours
Description: On the day of experiment, brain homogenate was thawed in water bath at room temperature and then incubated at 37° C. for 10 min before use. Pretreat the dialysis membrane according to the manufacturer's instructions: the dialysis membrane strips were soaked in ultra pure water at room temperature for approximately 1 hr. After that, each membrane strip that contains 2 membranes was separated and soaked in ethanol:water (20:80 v:v) for approximately 20 min, after which it was ready for use or was stored in the solution at 2-8° C. for up to 1 month. Prior to the experiment, the membrane was rinsed and soaked for 20 min in ultra pure water for use. Then working solutions (400 μM) of test compound and control compound were prepared. Aliquots of working solutions (3 μL) were spiked into blank matrix (597 μL) to achieve final concentrations and mixed thoroughly. Aliquots of 50 μL loading matrix containing test compound or control compound in triplicate was transferred to Sample Collection Plate, respectively. The samples were matched with opposite blank buffer to obtain a final volume of 100 μL with a volume ratio of matrix:Dialysis Buffer (1:1, v:v) in each well immediately. The stop solution was added to these T0 samples of test compound and control compound. The plate was sealed and shaked at 800 rpm for 10 min. Then these T0 samples were stored at 2-8° C. pending further process along with other post-dialysis samples. The dialysis instrument was assembled following manufacture's instructions. An aliquot of 100 μL of the loading matrix containing test compound or control compound was transferred to the donor side of each dialysis well in triplicate and 100 μL of the Dialysis Buffer was loaded to the receiver side of the well. Then the plate was rotated at approximately 100 rpm in a humidified incubator with 5% CO2 at 37±1° C. for 4 hours. At the end of the dialysis, aliquots of 50 μL samples from the buffer side and matrix side of the dialysis device were taken into new 96-well plates (Sample Collection Plates). An equal volume of opposite blank matrix (buffer or matrix) in each sample was added to reach a final volume of 100 μL with volume ratio of matrix:Dialysis Buffer at 1:1 (v:v) in each well. All samples were further processed by protein precipitation for LC/MS/MS analysis.

[3] = Plasma protein binding study; type: in vitro ADME; conditions: mouse plasma, equilibrium dialysis 4 hours; read-out: PPB-mouse (Bound) (%) (converted)
Description: On the day of experiment, the plasma was thawed under running cold tap water and centrifuged at 3220×g for 5 min to remove any clots. The pH value was checked and recorded. Only plasma within range of pH 7.0 to pH 8.0 was used. Pretreat the dialysis membrane according to the manufacturer's instructions: the dialysis membrane strips were soaked in ultra pure water at room temperature for approximately 1 hr. After that, each membrane strip that contains 2 membranes was separated and soaked in ethanol:water (20:80 v:v) for approximately 20 min, after which it was ready for use or was stored in the solution at 2-8° C. for up to 1 month. Prior to the experiment, the membrane was rinsed and soaked for 20 min in ultra pure water for use. Working solutions (400 μM) of test compound and control compound were prepared. Aliquots of working solutions (3 μL) were spiked into blank matrix (597 μL) to achieve final concentrations and mixed thoroughly. Aliquots of 50 μL loading matrix containing test compound or control compound in triplicate was transferred to Sample Collection Plate, respectively. The samples were matched with opposite blank buffer to obtain a final volume of 100 μL with a volume ratio of matrix:Dialysis Buffer (1:1, v:v) in each well immediately. The stop solution was added to these T0 samples of test compound and control compound. The plate was sealed and shaked at 800 rpm for 10 min. Then these T0 samples were stored at 2-8° C. pending further process along with other post-dialysis samples. The dialysis instrument was assembled following manufacture's instructions. An aliquot of 100 μL of the loading matrix containing test compound or control compound was transferred to the donor side of each dialysis well in triplicate and 100 μL of the Dialysis Buffer was loaded to the receiver side of the well. Then the plate was rotated at approximately 100 rpm in a humidified incubator with 5% CO2 at 37±1° C. for 4 hours. At the end of the dialysis, aliquots of 50 μL samples from the buffer side and matrix side of the dialysis device were taken into new 96-well plates (Sample Collection Plates). An equal volume of opposite blank matrix (buffer or matrix) in each sample was added to reach a final volume of 100 μL with volume ratio of matrix:Dialysis Buffer at 1:1 (v:v) in each well. All samples were further processed by protein precipitation for LC/MS/MS analysis.

EOC2 cell = assay: Cell proliferation assay, EOC2; type: cell-based, mouse; conditions: Mus musculus, 72 h, EOC2 cells, 72 hours treatment; read-out: ECO2 EC50
[4] = tested on: Ba/F3_CSF-1R (stably expressing human CSF-1R kinase); assay: Cell proliferation assay, Ba/F3_CSF-1R; type: cell-based; conditions: BaF3, 72 h, Ba/F3_CSF-1R cells, 72 hours treatment; read-out: CSF-1R BaF3 EC50
CSF-1R = CSF-1R (Homo sapiens (Human), UniProt P07333); assay: Biochemical HTRF kinase assay, CSF-1R; conditions: recombinant human CSF-1R;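 further: enzyme incubated with inhibitor plus a substrate and ATP mix for one hour at room temperature before HTRF detection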
CSF-1R, sequence (P07333 20-972): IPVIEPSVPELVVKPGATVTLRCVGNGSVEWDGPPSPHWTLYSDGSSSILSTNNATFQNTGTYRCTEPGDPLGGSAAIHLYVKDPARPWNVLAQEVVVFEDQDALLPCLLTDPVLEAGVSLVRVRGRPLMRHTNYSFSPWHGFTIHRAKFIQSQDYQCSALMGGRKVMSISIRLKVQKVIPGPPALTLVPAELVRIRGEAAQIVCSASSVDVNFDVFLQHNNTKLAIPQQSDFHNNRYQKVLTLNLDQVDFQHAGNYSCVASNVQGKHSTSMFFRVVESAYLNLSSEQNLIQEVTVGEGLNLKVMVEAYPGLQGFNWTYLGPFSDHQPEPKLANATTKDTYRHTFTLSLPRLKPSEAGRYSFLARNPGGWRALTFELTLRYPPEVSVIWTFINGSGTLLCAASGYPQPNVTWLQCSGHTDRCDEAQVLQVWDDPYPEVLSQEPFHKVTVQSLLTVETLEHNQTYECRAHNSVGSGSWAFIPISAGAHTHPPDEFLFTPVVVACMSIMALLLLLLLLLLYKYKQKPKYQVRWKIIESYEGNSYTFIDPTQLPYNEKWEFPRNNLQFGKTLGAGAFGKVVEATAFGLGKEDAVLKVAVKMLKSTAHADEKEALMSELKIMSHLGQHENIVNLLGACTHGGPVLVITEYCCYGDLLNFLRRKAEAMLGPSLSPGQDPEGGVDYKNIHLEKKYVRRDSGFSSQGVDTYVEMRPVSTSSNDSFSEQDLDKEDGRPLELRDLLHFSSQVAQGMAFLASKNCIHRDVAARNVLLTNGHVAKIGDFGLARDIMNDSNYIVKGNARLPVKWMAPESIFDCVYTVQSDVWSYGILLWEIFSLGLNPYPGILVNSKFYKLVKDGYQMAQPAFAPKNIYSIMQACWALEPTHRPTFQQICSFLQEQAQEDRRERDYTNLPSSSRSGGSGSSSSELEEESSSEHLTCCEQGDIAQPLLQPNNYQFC

[5] = tested on: CSF1R phosphorylation in THP-1 cells; assay: p-CSF1R ELISA assay in THP1 cells; type: cell-based; conditions: Homo sapiens, THP1 cells pre-treated one hour, stimulated with hCSF1, read-out: THP1 pCSFIR ELISA EC50
c-Kit = c-Kit (Homo sapiens (Human), UniProt P10721); assay: Biochemical HTRF kinase assay, c-Kit; conditions: for IC50: recombinant human protein, read-out: cKit IC50; for cKit Fold: selectivity: IC50 of cKit as multiple of IC50 of CSF-1R;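 on all read-outs here: enzyme reaction with substrate and ATP run in 384-well plates for 1 hour at room temperature, kinase activity detected by HTRF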
c-Kit, sequence (P10721 26-976): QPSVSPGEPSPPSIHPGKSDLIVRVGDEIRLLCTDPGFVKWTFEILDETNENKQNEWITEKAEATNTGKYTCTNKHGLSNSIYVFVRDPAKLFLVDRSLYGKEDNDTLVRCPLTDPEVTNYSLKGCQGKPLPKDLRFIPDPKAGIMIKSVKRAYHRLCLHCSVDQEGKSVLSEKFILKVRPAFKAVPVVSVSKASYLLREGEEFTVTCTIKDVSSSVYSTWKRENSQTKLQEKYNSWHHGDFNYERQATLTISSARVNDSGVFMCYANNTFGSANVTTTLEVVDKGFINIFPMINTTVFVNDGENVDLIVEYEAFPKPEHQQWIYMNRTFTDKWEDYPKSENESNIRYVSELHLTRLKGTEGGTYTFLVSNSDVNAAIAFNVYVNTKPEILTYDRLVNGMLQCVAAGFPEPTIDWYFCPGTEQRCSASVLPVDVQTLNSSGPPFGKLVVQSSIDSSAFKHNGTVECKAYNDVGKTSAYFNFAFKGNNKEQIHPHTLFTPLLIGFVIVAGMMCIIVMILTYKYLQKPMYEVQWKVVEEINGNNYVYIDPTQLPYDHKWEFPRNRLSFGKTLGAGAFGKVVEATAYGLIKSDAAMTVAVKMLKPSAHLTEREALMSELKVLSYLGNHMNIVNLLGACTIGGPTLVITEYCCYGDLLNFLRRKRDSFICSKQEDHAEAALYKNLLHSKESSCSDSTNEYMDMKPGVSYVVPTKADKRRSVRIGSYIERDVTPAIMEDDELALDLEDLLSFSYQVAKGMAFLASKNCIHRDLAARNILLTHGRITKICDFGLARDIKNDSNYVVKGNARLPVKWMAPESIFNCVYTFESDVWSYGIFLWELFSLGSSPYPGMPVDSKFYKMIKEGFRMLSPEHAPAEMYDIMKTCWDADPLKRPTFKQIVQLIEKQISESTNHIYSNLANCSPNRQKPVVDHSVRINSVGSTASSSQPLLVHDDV

PDGFRβ = PDGFRβ (Homo sapiens (Human), UniProt P09619); assay: Biochemical HTRF kinase assay, PDGFRβ; conditions: for IC50: recombinant human protein, read-out: PDGFR-1β IC50; for PDGFR-1β Fold: selectivity: IC50 of PDGFR-1β as multiple of IC50 of CSF-1R;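 on all read-outs here: kinase reaction with substrate/ATP mix run 1 h at room temperature in 384-well format, HTRF signal detection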
PDGFRβ, sequence (P09619 33-1106): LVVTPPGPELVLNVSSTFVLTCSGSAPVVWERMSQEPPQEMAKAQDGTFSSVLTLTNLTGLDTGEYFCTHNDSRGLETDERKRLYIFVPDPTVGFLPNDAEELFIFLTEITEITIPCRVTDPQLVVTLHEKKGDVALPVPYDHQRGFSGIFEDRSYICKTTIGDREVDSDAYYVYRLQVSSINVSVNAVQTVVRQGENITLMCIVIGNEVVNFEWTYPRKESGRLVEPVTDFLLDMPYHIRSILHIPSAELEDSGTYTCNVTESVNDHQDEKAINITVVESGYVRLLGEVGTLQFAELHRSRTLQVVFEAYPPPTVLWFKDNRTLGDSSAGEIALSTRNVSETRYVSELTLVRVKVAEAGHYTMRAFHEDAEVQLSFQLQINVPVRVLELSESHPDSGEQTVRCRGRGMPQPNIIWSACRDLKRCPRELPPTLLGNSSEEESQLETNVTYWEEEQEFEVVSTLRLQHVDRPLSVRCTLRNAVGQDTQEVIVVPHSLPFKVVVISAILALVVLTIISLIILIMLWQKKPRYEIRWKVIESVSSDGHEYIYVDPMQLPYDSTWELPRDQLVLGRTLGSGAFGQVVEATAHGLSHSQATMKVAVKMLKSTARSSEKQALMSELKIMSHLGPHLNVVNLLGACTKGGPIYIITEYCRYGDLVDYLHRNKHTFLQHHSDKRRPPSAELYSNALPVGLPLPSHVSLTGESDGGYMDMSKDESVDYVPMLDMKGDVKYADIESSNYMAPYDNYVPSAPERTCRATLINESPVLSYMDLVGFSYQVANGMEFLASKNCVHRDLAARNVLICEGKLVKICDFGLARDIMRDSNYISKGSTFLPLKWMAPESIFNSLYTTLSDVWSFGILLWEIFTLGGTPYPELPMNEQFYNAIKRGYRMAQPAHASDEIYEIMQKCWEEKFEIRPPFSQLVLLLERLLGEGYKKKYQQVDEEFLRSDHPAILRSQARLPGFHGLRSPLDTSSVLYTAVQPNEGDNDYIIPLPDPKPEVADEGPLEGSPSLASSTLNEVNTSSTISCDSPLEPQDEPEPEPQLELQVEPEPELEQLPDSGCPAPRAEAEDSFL

FLT3 = FLT3 (Homo sapiens (Human), UniProt P36888); assay: Biochemical HTRF kinase assay, FLT3; conditions: for IC50: recombinant human protein; for FLT3 Fold: selectivity: IC50 of FLT3 as multiple of IC50 of CSF-1R
FLT3, sequence (P36888 27-993): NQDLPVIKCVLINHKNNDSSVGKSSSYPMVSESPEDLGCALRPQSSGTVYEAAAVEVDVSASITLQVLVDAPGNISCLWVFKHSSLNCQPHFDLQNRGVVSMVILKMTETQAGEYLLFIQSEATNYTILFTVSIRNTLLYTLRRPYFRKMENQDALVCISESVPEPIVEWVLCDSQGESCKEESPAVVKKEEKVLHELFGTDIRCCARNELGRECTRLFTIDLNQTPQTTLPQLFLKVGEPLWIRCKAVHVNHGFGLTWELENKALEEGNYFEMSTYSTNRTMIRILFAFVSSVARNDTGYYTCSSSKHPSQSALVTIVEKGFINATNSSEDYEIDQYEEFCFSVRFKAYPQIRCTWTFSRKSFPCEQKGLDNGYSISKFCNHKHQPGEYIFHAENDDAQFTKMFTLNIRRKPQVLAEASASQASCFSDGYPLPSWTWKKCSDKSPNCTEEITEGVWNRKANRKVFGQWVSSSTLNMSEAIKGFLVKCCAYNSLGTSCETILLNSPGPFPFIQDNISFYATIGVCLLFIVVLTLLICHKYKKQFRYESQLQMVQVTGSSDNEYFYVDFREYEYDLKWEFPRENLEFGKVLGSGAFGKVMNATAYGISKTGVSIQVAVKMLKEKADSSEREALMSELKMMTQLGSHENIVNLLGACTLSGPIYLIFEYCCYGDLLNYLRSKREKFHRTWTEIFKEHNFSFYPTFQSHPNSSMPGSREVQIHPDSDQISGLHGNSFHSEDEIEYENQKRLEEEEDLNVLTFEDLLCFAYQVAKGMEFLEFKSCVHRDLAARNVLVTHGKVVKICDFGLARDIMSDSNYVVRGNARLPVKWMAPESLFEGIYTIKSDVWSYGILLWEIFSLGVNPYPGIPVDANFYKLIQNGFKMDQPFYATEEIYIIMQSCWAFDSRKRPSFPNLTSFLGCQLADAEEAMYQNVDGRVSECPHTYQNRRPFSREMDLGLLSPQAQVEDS

[6] = serum, iv, 2 mg/kg, CD1 mouse, i.v. 2 mg/kg, read-out: IV-2mpk T1/2 (converted)
[7] = serum, po, 45 mg/kg, CD1 mouse, p.o. 45 mg/kg, read-out: PO-45mpk T1/2 (converted)
[8] = CD1, po, mouse, p.o. 45 mg/kg, brain, read-out: PO-45mpk AUClast-brain
[9] = CD1, po, mouse, p.o. 45 mg/kg, plasma, Tables 7 and 8, read-out: PO-45mpk AUClast-plasma
[10] = serum, iv, CD1 mouse, i.v. 2 mg/kg, read-out: IV-2mpk AUCInf
[11] = serum, iv, CD1 mouse, i.v. 2 mg/kg, read-out: IV-2mpk AUClast
[12] = serum, iv, CD1 mouse, i.v. 2 mg/kg
[13] = serum, po, CD1 mouse, p.o. 45 mg/kg, Tables 5 and 6, read-out: PO-45mpk AUClast
[14] = serum, po, CD1 mouse, p.o. 45 mg/kg, read-out: PO-45mpk AUCInf
[15] = serum, po, CD1 mouse, p.o. 45 mg/kg

Compound | Kp uu ([1]; po, mouse, p.o. 45 mg/kg) | half-life [1, 6] | AUC(0-t) [1, 8] | AUC(0-t) [1, 9] | AUC(0-inf) [1, 10] | AUC(0-t) [1, 11] | clearance [1, 12] | Vd [1, 12] | AUC(0-t) [1, 13] | Cmax [1, 15] | Tmax [1, 15] | BPB-mouse (Bound) (%) [2] | fraction unbound at 4 h, 2 µM [3] | EC50 (EOC2 cell) | EC50 [4] | IC50 (CSF-1R; Table 2) | IC50 (c-Kit) | cKit Fold (c-Kit) | IC50 (PDGFRβ) | PDGFR-1β Fold (PDGFRβ) | further results
COc1ncc(F)cc1CNc1ccc(Cc2c[nH]c3ncc(C)cc23)c(F)n1 [PLX5622, reference compound] | 0.003 | 3.69 h | 37600 ng·h/mL | 163000 ng·h/mL | 6130 ng·h/mL | 6100 ng·h/mL | 5.43 mL/min/kg | 0.98 L/kg | 163000 ng·h/mL | 24900 ng/mL | 1 h | 99.97% | 0.023 | – | – | – | – | – | – | – | half-life [1, 7]: 2.43 h; bioavailability ([1]; serum, oral, CD1 mouse): 118%; AUC(0-inf) [1, 14]: 163000 ng·h/mL
COc1cnc2c(Cc3cnc(OCc4ccc(C(F)(F)F)nc4)c(OC)c3)ccnc2c1 [Example 45] | 0.96 | 14.2 h | 94800 ng·h/mL | 132000 ng·h/mL | 14900 ng·h/mL | 10700 ng·h/mL | 2.23 mL/min/kg | 2.49 L/kg | 132000 ng·h/mL | 8940 ng/mL | 0.5 h | 99.6% | 0.003 | 30.5 nM | 34.2 nM | 2.31 nM | – | – | – | – | IV-2mpk CL ([1]; CD1 mouse, i.v. 2 mg/kg): 2.23 mL/min/kg; IV-2mpk T1/2 ([1]; CD1 mouse, i.v. 2 mg/kg): 14.2 h; bioavailability ([1]; serum, po, CD1 mouse): 55%
COc1ccc(COc2ncc(Cc3ccnc(-c4cnn(C)c4)n3)cc2OC)nc1 [Comparator A, reference compound] | 0.86 | 1.34 h | 53700 ng·h/mL | 181000 ng·h/mL | 4660 ng·h/mL | 4590 ng·h/mL | 7.17 mL/min/kg | 0.635 L/kg | 181000 ng·h/mL | 32000 ng/mL | 1 h | 88.37% | 0.0415 | – | – | – | – | – | – | – | half-life [1, 7]: 1.64 h; bioavailability ([1]; serum, oral, CD1 mouse): 173%; AUC(0-inf) [1, 14]: 181000 ng·h/mL; EC50 [5]: 21.3 nM
COc1cnc2c(Cc3cnc(OCc4cc5n(n4)C[C@@H](OC)C5)c(OC)c3)ccnc2c1 [Example 121] | – | – | – | – | – | – | – | – | – | – | – | – | – | 15.2 nM | 41.1 nM | 19.9 nM | > 1000 nM | >50 fold | > 1000 nM | >50 fold | IC50 (CSF-1R; Table 3): 19.9 nM; IC50 (FLT3): > 1000 nM; FLT3 Fold (FLT3): >50 fold
COc1cnc2c(Cc3cnc(OCc4cnc5c(c4)OCCN5C)c(OC)c3)ccnc2c1 [Example 87] | – | – | – | – | – | – | – | – | – | – | – | – | – | 92 nM | 86.3 nM | 0.83 nM | > 1000 nM | >100 fold | 208 nM | >100 fold | IC50 (CSF-1R; Table 3): 0.83 nM; IC50 (FLT3): > 1000 nM; FLT3 Fold (FLT3): >100 fold
COc1cnc2c(Cc3cnc(OCc4cc(C)n(C5COC5)n4)c(OC)c3)ccnc2c1 [Example 88] | – | – | – | – | – | – | – | – | – | – | – | – | – | 116 nM | 76.7 nM | 4.9 nM | > 1000 nM | >100 fold | > 1000 nM | >100 fold | IC50 (CSF-1R; Table 3): 4.9 nM; IC50 (FLT3): > 1000 nM; FLT3 Fold (FLT3): >100 fold
